Reference: patent US5552156A, “Liposomal and micellular stabilization of camptothecin drugs” (Ohio State University, priority 1995, dated 1996)
Entries after “also recorded” stand apart in the source; their conditions may differ.

Columns and labels:
[1] = Steady-state fluorescence anisotropy in solvents and liposomes; assay type: physicochemical; details: for steady-state anisotropy (a), DMPC: DMPC liposomes, 1/a vs. 1/[lipid] plot; for steady-state anisotropy (a), DMPC / steady-state anisotropy (a), DMPG / steady-state anisotropy (a), PBS / steady-state anisotropy (a), glycerol / steady-state anisotropy (a), octanol / steady-state anisotropy (a), DSPC: 37° C.; for steady-state anisotropy (a), DMPG: DMPG liposomes; for steady-state anisotropy (a), PBS / steady-state anisotropy (a), glycerol / steady-state anisotropy (a), octanol: 1 μM drug; for limiting fluorescence anisotropy a0: extrapolated to -25° C.; for limiting fluorescence anisotropy a0 / steady-state anisotropy (a), glycerol: glycerol; for steady-state anisotropy (a), DSPC: DSPC liposomes
Protocol: Steady-state fluorescence measurements were obtained on a SLM Model 4800C. spectrofluorometer with a thermostated cuvette compartment. This instrument was interfaced with an IBM PS/2 model 55 SX computer. Excitation and emission spectra were recorded with an excitation resolution of 8 nm and an emission resolution of 4 nm. In all cases spectra were corrected for background fluorescence and scatter from unlabeled lipids or from solvents by subtraction of the spectrum of a blank. Steady-state fluorescence intensity measurements were made in the absence of polarizer. Steady-state anisotropy (a) measurements were determined with the instrument in the "T-format" for simultaneous measurement of two polarized intensities. The alignment of polarizers were checked routinely using a dilute suspension of 0.25 μm polystyrene microspheres from Polysciences, Inc, Warrington, Pa., in water; anisotropy values of >0.99 were obtained. The anisotropy was calculated from a=(Ivv -GlVH)/(Ivv +GIVH), where G-IVH /IHH and the subscripts refer to vertical and horizontal orientations of the excitation and emission polarizers, respectively.
Anisotropy measurements for camptothecin, camptothecin carboxylate sodium salt, and 10,11-methylenedioxycamptothecin were conducted using exciting light of 370 nm and 420 nm long wave pass filters on each emission channel in order to isolate the fluorescence signal from background scatter and signal. For topotecan a 400 nm excitation wavelength and a 500 nm emission filter were used and for 9-aminocamptothecin a 375 nm excitation and a wavelength 420 nm emission filter were used. For AMC and CMC, a 370 nm excitation wavelength and a 400 nm emission filter were used. For 10-hydroxycamptothecin 375 nm excitation wavelength 500 nm emission filter was used. Emission filters were obtained from Oriel Corp. Stamford, Conn. The combination of exciting light and emission filters allows one to adequately separate the fluorescence from the background signal. The contribution of background fluorescence, together with scattered light, was typically less than 1% of the total intensity. Since the lactone ring of the camptothecin drug undergoes hydrolysis in aqueous medium, all measurements were completed within the shortest possible time, less than 1 minute after mixing the drug stock solution with PBS or the liposomes. In each case, analysis was initiated immediately after mixing the drug stock solution with PBS or with the liposomes. All measurements were performed at 37° C. unless otherwise noted.
(§1) While the spectral changes provide qualitative evidence that the camptothecin drugs bind the liposome membranes, fluorescence anisotropy titration, offers the most sensitive means for quantitatively assessing the extent of the binding. The fluorescence anisotropy titration was performed according to the method of Burke and Tritton, Biochemistry 24: 1768-1776 (1985).
A steady-state fluorescence anisotropy (a) measurement is related to the rotational rate of the fluorescent molecule through the Perrin Equation: […]
where a0 is the limiting fluorescence anisotropy value, that is, the anisotropy value in the absence of depolarizing rotations, T is the excited-state lifetime, and .phi. is the rotational correlative time of the fluorophore. According to Equation 1, changes in either the T or .phi. values of a fluorescent compound can modulate its steady-state anisotropy.
The limiting fluorescence anisotropy (a0) values were also measured. The maximum values of (a) were obtained by dissolving the camptothecin drugs in the viscous solvent glycerol and cooling the samples to low temperatures. Steady-stated anisotropy (a) values were determined for samples containing 1 μM drug at 37° C.
Where the solvent viscosity is high and temperature is low, depolarizing rotations are at a minimum. By extrapolating these (a) values to -25° C., the limiting anisotropy values (a0) for the camptothecin drugs, were determined. […]

[2] = Overall association constant by fluorescence anisotropy titration, DMPG liposomes; assay type: physicochemical; details: for overall association constant K, DMPG: DMPG (negatively charged, fluid phase), PBS, 37° C.; for bound drug level, DMPG: DMPG liposomes, 0.29M lipid, estimated
Protocol: as §1
The concentrations of free camptothecin drugs and camptothecin drugs associated with liposomes were determined at various lipid concentrations. All experiments were conducted in glass tubes pretreated with a silating agent, Surfacil, from Pearce Chemical, Rockford, Ill. The titration was conducted at camptothecin drug concentration of 1×10^-6 M in PBS at 37° C. Anisotropy values at each lipid concentration were determined within less than 30 seconds following the addition of the camptothecin drugs to the liposome suspension. The (a) values were determined for fixed drug concentration, typically 2 μM, while the lipid concentration was varied from 0 to 0.29M. By varying the lipid concentration rather than varying the drug concentration, the problem of self-association phenomenon which occurs for camptothecin drugs concentrations in excess of 10 μM is avoided. Also, the well-known phenomenon known as inner filter effect which occurs using fluorescent material at high optical densities is a is avoided.
Adsorption isotherms like those shown in FIGS. 4A and 4B were used to determine overall association constants for the camptothecin drugs. Overall association constants are defined as: […]
where [AB ] represents the concentration of the camptothecin drug bound to the vesicle membrane, [AF ] represents the concentration of free drug, and [L] represents the total lipid concentration in the liposome suspension. This equation is valid when the concentration of free lipid is approximately equal to the concentration of total lipid, that is, the concentration of free lipid is in great excess over the concentration of bound drug. Provided this concentration is satisfied, K may be determined from the inverse of the slope of a double reciprocal plot according to (Burke and Tritton, Biochemistry 24:1776, 1985). In such a plot, 1/bound fraction of the total camptothecin drug is plotted vs. 1/[lipid], with a y-intercept value of 1.
The stabilization of camptothecin drugs was determined using different lipids. Three types of lipids (and thus 3 types of membranes) were examined: fluid-phase and electroneutral L-α-dimyristoylphosphatidylcholine (DMPC); fluid-phase and negatively-charged L-α-dimyristoylphosphatidylglycerol (DMPG), and solid-phase and electroneutral L-α-distearoylphosphatidylcholine (DSPC). While DMPC and DMPG have identical chain length, the charge on their head groups differ. DMPC and DSPC have identical head groups, but DMPC has acyl chains having 14 carbons per chain, which are four carbons shorter than the DSPC, which has 18 carbons per chain. This difference of 4-carbon chain length results in DMPC being fluid-phase at 37° C. while DSPC is solid-phase. The 7 camptothecin drugs listed in Table III were combined with liposomes containing the above lipids.
FIGS. 4A and 4B show the extent of camptothecin drug binding to liposomes as a function of lipid concentration for DMPC and DMPG liposomes. DMPC liposomes were made as in Example 1, at lipid concentrations from 0 to 0.29M, using CMC, 10-hydroxycamptothecin, 10,11-methylenedioxy-camptothecin, topotecan, camptothecin, and camptothecin carboxylate sodium salt, as shown in FIG. 4B. DMPG liposomes were made as in Example 2, at lipid concentrations from 0 to 0.29M, using 9-chloro-10,11-methylenedioxycamptothecin CMC, 10,11-methylenedioxycamptothecin, camptothecin, and topotecan, 9-aminocamptothecin, as shown in FIG. 4A. The lipid concentration […] of the data using double-reciprocal plots gave identical overall association/binding constants of 100M^-1.

Structure (SMILES): CCC1(O)C(=O)OCc2c1cc1n(c2=O)Cc2cc3c(Cl)c4c(cc3nc2-1)OCO4 (centres unmarked) [9-chloro-10,11-methylenedioxycamptothecin]
- steady-state anisotropy (a), DMPC [1]: 0.202
- steady-state anisotropy (a), DMPG [1]: 0.207
- steady-state anisotropy (a), PBS [1]: 0.025
- limiting fluorescence anisotropy a0 [1]: 0.367
- steady-state anisotropy (a), glycerol [1]: 0.363
- steady-state anisotropy (a), octanol [1]: 0.098
- overall association constant K, DMPG [2]: 320 M⁻¹
- bound drug level, DMPG [2]: 99%

Structure (SMILES): CCC1(O)C(=O)OCc2c1cc1n(c2=O)Cc2cc3cc4c(cc3nc2-1)OCO4 (centres unmarked) [10,11-methylenedioxycamptothecin]
- steady-state anisotropy (a), DMPC [1]: 0.168
- steady-state anisotropy (a), DMPG [1]: 0.206
- steady-state anisotropy (a), PBS [1]: 0.021
- limiting fluorescence anisotropy a0 [1]: 0.374
- steady-state anisotropy (a), glycerol [1]: 0.357
- steady-state anisotropy (a), octanol [1]: 0.089

Structure (SMILES): CCC1(O)C(=O)OCc2c1cc1n(c2=O)Cc2cc3cc(O)ccc3nc2-1 (centres unmarked) [10-hydroxycamptothecin]
- steady-state anisotropy (a), DMPC [1]: 0.191
- steady-state anisotropy (a), DMPG [1]: 0.201
- steady-state anisotropy (a), PBS [1]: 0.021
- limiting fluorescence anisotropy a0 [1]: 0.372
- steady-state anisotropy (a), glycerol [1]: 0.331
- steady-state anisotropy (a), octanol [1]: 0.127
- overall association constant K, DMPG [2]: 75 M⁻¹

Structure (SMILES): CC[C@@]1(O)C(=O)OCc2c1cc1n(c2=O)Cc2cc3ccccc3nc2-1 [camptothecin]
- steady-state anisotropy (a), DMPC [1]: 0.127
- steady-state anisotropy (a), DMPG [1]: 0.122
- steady-state anisotropy (a), DSPC [1]: 0.087
- steady-state anisotropy (a), PBS [1]: 0.007
- enhancement in steady-state anisotropy (a) value ([1]; bound to DMPG liposomes): 17 -fold
- limiting fluorescence anisotropy a0 [1]: 0.383
- steady-state anisotropy (a), glycerol [1]: 0.334
- steady-state anisotropy (a), octanol [1]: 0.051
- bound drug level, DMPG [2]: 97%

Structure (SMILES): CC[C@@]1(O)C(=O)OCc2c1cc1n(c2=O)Cc2cc3c(CN(C)C)c(O)ccc3nc2-1 [topotecan]
- steady-state anisotropy (a), DMPC [1]: 0.125
- steady-state anisotropy (a), DMPG [1]: 0.170
- steady-state anisotropy (a), DSPC [1]: 0.059
- steady-state anisotropy (a), PBS [1]: 0.008
- limiting fluorescence anisotropy a0 [1]: 0.367
- steady-state anisotropy (a), glycerol [1]: 0.320
- steady-state anisotropy (a), octanol [1]: 0.071
- reduced ability to bind negatively-charged liposome membranes relative to CMC ([2]; DMPG): 6 -fold
- overall association constant K, DMPG [2]: 50 M⁻¹
- binding preference DMPG over DMPC ([2]; DMPG compared to DMPC): preferentially binds negatively charged DMPG liposomes as compared to DMPC liposomes; also recorded: strong binding preference for the negatively-charged lipid DMPG
- bound drug level, DMPG [2]: 93%
